According to ChEMBL document CHEMBL3992485 (Medchemcomm, 2016):
The source made the active and inactive calls. No cut-off for these calls is given here.

How the values were obtained:
HeLa [1] = experiment: Antiproliferative activity against human HeLa cells measured after 24 hrs by MTT assay; assay type: functional, cell-based
MCF7 = experiment: Antiproliferative activity against human MCF7 cells measured after 24 hrs by MTT assay; assay type: functional, cell-based; conditions: MCF7, 24 h
A549 = experiment: Antiproliferative activity against human A549 cells measured after 24 hrs by MTT assay; assay type: functional, cell-based; conditions: A549, 24 h
[2] = Antiproliferative activity against human 293T cells measured after 24 hrs by MTT assay; assay type: cell-based; conditions: 293T (HEK-293T) cells
[3] = Inhibition of tubulin polymerization in bovine brain assessed as reduction in tubulin assembly after 20 mins by spectrophotometric method; set-up: species or system Bos taurus
HeLa [4] = experiment: Cell cycle arrest in human HeLa cells assessed as accumulation at G2/M phase after 24 hrs by propidium iodide staining based flow cytometry; assay type: functional
HeLa [5] = experiment: Cell cycle arrest in human HeLa cells assessed as accumulation at S phase at 0.1 uM after 24 hrs by propidium iodide staining based flow cytometry (reference value: 49.41%); assay type: functional
HeLa [6] = experiment: Cell cycle arrest in human HeLa cells assessed as accumulation at G2/M phase at 0.1 uM after 24 hrs by propidium iodide staining based flow cytometry (reference value: 2.15%); assay type: functional
HeLa [7] = experiment: Cell cycle arrest in human HeLa cells assessed as accumulation at S phase at 0.2 uM after 12 hrs by propidium iodide staining based flow cytometry (reference value: 49.41%); assay type: functional
HeLa [8] = experiment: Cell cycle arrest in human HeLa cells assessed as accumulation at G2/M phase at 0.2 uM after 12 hrs by propidium iodide staining based flow cytometry (reference value: 2.15%); assay type: functional
HeLa [9] = experiment: Cell cycle arrest in human HeLa cells assessed as accumulation at S phase at 0.4 uM after 12 hrs by propidium iodide staining based flow cytometry (reference value: 49.41%); assay type: functional
HeLa [10] = experiment: Cell cycle arrest in human HeLa cells assessed as accumulation at G2/M phase at 0.4 uM after 12 hrs by propidium iodide staining based flow cytometry (reference value: 2.15%); assay type: functional
HeLa [11] = experiment: Cell cycle arrest in human HeLa cells assessed as accumulation at G1 phase at 0.8 uM after 12 hrs by propidium iodide staining based flow cytometry (reference value: 85.81%); assay type: functional
HeLa [12] = experiment: Cell cycle arrest in human HeLa cells assessed as accumulation at S phase at 0.8 uM after 12 hrs by propidium iodide staining based flow cytometry (reference value: 49.41%); assay type: functional
HeLa [13] = experiment: Cell cycle arrest in human HeLa cells assessed as accumulation at G2/M phase at 0.8 uM after 12 hrs by propidium iodide staining based flow cytometry (reference value: 2.15%); assay type: functional
HeLa [14] = experiment: Cell cycle arrest in human HeLa cells assessed as accumulation at G1 phase at 0.5 uM after 12 hrs by propidium iodide staining based flow cytometry (reference value: 79.19%); assay type: functional
HeLa [15] = experiment: Cell cycle arrest in human HeLa cells assessed as accumulation at G2/M phase at 0.5 uM after 12 hrs by propidium iodide staining based flow cytometry (reference value: 8.14%); assay type: functional
HeLa [16] = experiment: Cell cycle arrest in human HeLa cells assessed as accumulation at G1 phase at 0.5 uM after 24 hrs by propidium iodide staining based flow cytometry (reference value: 79.19%); assay type: functional
HeLa [17] = experiment: Cell cycle arrest in human HeLa cells assessed as accumulation at G2/M phase at 0.5 uM after 24 hrs by propidium iodide staining based flow cytometry (reference value: 8.14%); assay type: functional
HeLa [18] = experiment: Cell cycle arrest in human HeLa cells assessed as accumulation at G1 phase at 0.5 uM after 36 hrs by propidium iodide staining based flow cytometry (reference value: 79.19%); assay type: functional
HeLa [19] = experiment: Cell cycle arrest in human HeLa cells assessed as accumulation at G2/M phase at 0.5 uM after 36 hrs by propidium iodide staining based flow cytometry (reference value: 8.14%); assay type: functional
HeLa [20] = experiment: Induction of apoptosis in human HeLa cells after 24 hrs by Annexin-V-FITC/propidium iodide staining based flow cytometry; assay type: functional, cell-based
HeLa [21] = experiment: Induction of apoptosis in human HeLa cells at 0.5 uM by Annexin-V-FITC/propidium iodide staining based flow cytometry; assay type: functional, cell-based; conditions: TDE = time-dependent effect
HeLa [22] = experiment: Induction of apoptosis in human HeLa cells assessed as late apoptotic cells at 0.1 uM after 24 hrs by Annexin-V-FITC/propidium iodide staining based flow cytometry (reference value: 3.1%); assay type: functional
HeLa [23] = experiment: Induction of apoptosis in human HeLa cells assessed as early apoptotic cells at 0.2 uM after 24 hrs by Annexin-V-FITC/propidium iodide staining based flow cytometry (reference value: 2.41%); assay type: functional
HeLa [24] = experiment: Induction of apoptosis in human HeLa cells assessed as viable cells at 0.4 uM after 24 hrs by Annexin-V-FITC/propidium iodide staining based flow cytometry (reference value: 94.4%); assay type: functional; conditions: read-out: Activity
HeLa [25] = experiment: Induction of apoptosis in human HeLa cells assessed as early apoptotic cells at 0.4 uM after 24 hrs by Annexin-V-FITC/propidium iodide staining based flow cytometry (reference value: 2.41%); assay type: functional
HeLa [26] = experiment: Induction of apoptosis in human HeLa cells assessed as necrotic cells at 0.4 uM after 24 hrs by Annexin-V-FITC/propidium iodide staining based flow cytometry (reference value: 0.084%); assay type: functional
HeLa [27] = experiment: Induction of apoptosis in human HeLa cells assessed as viable cells at 0.8 uM after 24 hrs by Annexin-V-FITC/propidium iodide staining based flow cytometry (reference value: 94.4%); assay type: functional; conditions: read-out: Activity
HeLa [28] = experiment: Induction of apoptosis in human HeLa cells assessed as early apoptotic cells at 0.8 uM after 24 hrs by Annexin-V-FITC/propidium iodide staining based flow cytometry (reference value: 2.41%); assay type: functional
HeLa [29] = experiment: Induction of apoptosis in human HeLa cells assessed as necrotic cells at 0.8 uM after 24 hrs by Annexin-V-FITC/propidium iodide staining based flow cytometry (reference value: 0.084%); assay type: functional
HeLa [30] = experiment: Induction of apoptosis in human HeLa cells assessed as late apoptotic cells at 0.5 uM after 12 hrs by Annexin-V-FITC/propidium iodide staining based flow cytometry (reference value: 2.64%); assay type: functional
HeLa [31] = experiment: Induction of apoptosis in human HeLa cells assessed as necrotic cells at 0.5 uM after 12 hrs by Annexin-V-FITC/propidium iodide staining based flow cytometry (reference value: 0.35%); assay type: functional
HeLa [32] = experiment: Induction of apoptosis in human HeLa cells assessed as viable cells at 0.5 uM after 24 hrs by Annexin-V-FITC/propidium iodide staining based flow cytometry (reference value: 91%); assay type: functional; conditions: read-out: Activity
HeLa [33] = experiment: Induction of apoptosis in human HeLa cells assessed as early apoptotic cells at 0.5 uM after 24 hrs by Annexin-V-FITC/propidium iodide staining based flow cytometry (reference value: 6.02%); assay type: functional
HeLa [34] = experiment: Induction of apoptosis in human HeLa cells assessed as late apoptotic cells at 0.5 uM after 36 hrs by Annexin-V-FITC/propidium iodide staining based flow cytometry (reference value: 2.64%); assay type: functional
HeLa [35] = experiment: Inhibition of microtubule polymerization in human HeLa cells assessed as appearance of short and curled microtubule fragments at 0.4 uM after 24 hrs by DAPI staining based confocal microscopic analysis; assay type: cell-based

For `CCn1cc(C(=O)N2CCN(S(=O)(=O)c3c(C(C)C)cc(C(C)C)cc3C(C)C)CC2)c2ccccc21`, the IC50 (HeLa [1]) was 240 nM, the IC50 (MCF7) was 350 nM and the IC50 (A549) was 590 nM. For the same compound, the CC50 at 24 h [2] was 424000 nM, the IC50 [3] was 1820 nM and the Activity (HeLa [4]) was “Dose-dependent effect”. The Activity (HeLa [5]) was 49.47%, the Activity (HeLa [6]) was 15.09% and the Activity (HeLa [7]) was 61.18%. For the same compound, the Activity (HeLa [8]) was 20.46%, the Activity (HeLa [9]) was 40.08% and the Activity (HeLa [10]) was 51.71%. The Activity (HeLa [11]) was 10.02%, the Activity (HeLa [12]) was 53.83% and the Activity (HeLa [13]) was 83.61%. The Activity (HeLa [14]) was 42.86%, the Activity (HeLa [15]) was 18.43% and the Activity (HeLa [16]) was 5.23%. It also gave an Activity (HeLa [17]) of 54.57%, an Activity (HeLa [18]) of 1.19% and an Activity (HeLa [19]) of 65.29%. For the same compound, the Activity (HeLa [20]) was “Dose-dependent effect”, the Activity (HeLa [21]) was “Tde” and the Activity (HeLa [22]) was 5.71%. The Activity (HeLa [23]) was 21.7%, the viability at 0.4 µM (HeLa [24]) was 63.6% and the Activity (HeLa [25]) was 23.1%. For the same compound, the Activity (HeLa [26]) was 0.581%, the viability at 0.8 µM (HeLa [27]) was 44% and the Activity (HeLa [28]) was 32.6%. The Activity (HeLa [29]) was 1.05%, the Activity (HeLa [30]) was 3.97% and the Activity (HeLa [31]) was 0.03%. It also gave a viability at 0.5 µM (HeLa [32]) of 72.7%, an Activity (HeLa [33]) of 20.1% and an Activity (HeLa [34]) of 21.2%. The inhibition (HeLa [35]) was “Active”.
